Results taken from ChEMBL document CHEMBL4483862, “Open-source discovery of chemical leads for next-generation chemoprotective antimalarials” (2018).

System: Plasmodium berghei
Test: Luciferase/luciferin-expressing antifolate-resistant parasites were used to infect a culture of HepG2 cells that were pre-incubated with compounds. Infected hepatocytes emit light due to the luciferase reaction. Assay results are presented as the percent inhibition of light emission compared to control. […]
Type: functional
Details: sporozoite; for IC90: read-out: LUCIFERASE INFECTION ASSAY - IC90

Structure (SMILES) | IC90 | other results
Nc1nc2ccccc2n1Cc1ccc(Cl)cc1 | 5.46 µM | IC50 (HEPG2TOX_HILL_SLOPE 1, HEPG2TOX_R_SQUARED 0.963, PBLUC_HILL_SLOPE 11.6, PBLUC_R_SQUARED 0.65, read-out: LUCIFERASE INFECTION ASSAY - IC50): 4.52 µM
CC1CC(C)CN(C2=CC(=[N+]3CCCC3)CC(C)(C)C2)C1 (centres undefined) | 2.02 µM | IC50 (HEPG2TOX_HILL_SLOPE 0.983, HEPG2TOX_R_SQUARED 0.985, PBLUC_HILL_SLOPE 2.02, PBLUC_R_SQUARED 0.664, read-out: LUCIFERASE INFECTION ASSAY - IC50): 0.682 µM
CNc1nnc(Sc2nc(CN3CCCCC3)nc3scc(-c4ccccc4)c23)s1 | 3.67 µM | IC50 (HEPG2TOX_HILL_SLOPE 0.991, HEPG2TOX_R_SQUARED 0.829, PBLUC_HILL_SLOPE 15.5, PBLUC_R_SQUARED 0.389, read-out: LUCIFERASE INFECTION ASSAY - IC50): 3.19 µM
OCc1ccc(-c2cnc3cnc(/C=C/c4ccccc4)cn23)cc1 | 0.659 µM | IC50 (HEPG2TOX_HILL_SLOPE 0.99, HEPG2TOX_R_SQUARED 0.698, PBLUC_HILL_SLOPE 2.37, PBLUC_R_SQUARED 0.796, read-out: LUCIFERASE INFECTION ASSAY - IC50): 0.261 µM
COc1ccc2c(c1)CCCN2C(=O)c1occc1C | 1.23 µM | IC50 (HEPG2TOX_HILL_SLOPE 0.966, HEPG2TOX_R_SQUARED 0.937, PBLUC_HILL_SLOPE 15.5, PBLUC_R_SQUARED 0.354, read-out: LUCIFERASE INFECTION ASSAY - IC50): 1.07 µM
Cc1cc(=O)oc2cc(Oc3nc(CN4CCOCC4)nc4sc5c(c34)CCCC5)c(Cl)cc12 | > 10 µM | IC50 (HEPG2TOX_HILL_SLOPE 1.03, HEPG2TOX_R_SQUARED 0.724, read-out: LUCIFERASE INFECTION ASSAY - IC50): > 10 µM
COc1ccc(-c2cnc3cnc(-c4cnn(C)c4)cn23)cc1 | > 10.8 µM | IC50 (HEPG2TOX_HILL_SLOPE 0.995, HEPG2TOX_R_SQUARED 0.66, PBLUC_HILL_SLOPE 1.64, PBLUC_R_SQUARED 0.772, read-out: LUCIFERASE INFECTION ASSAY - IC50): 3.01 µM
Cn1cc(/C=C/C(=O)Nc2ncc(Cc3ccccc3)s2)cn1 | 2.15 µM | IC50 (HEPG2TOX_HILL_SLOPE 0.97, HEPG2TOX_R_SQUARED 0.894, PBLUC_HILL_SLOPE 1.67, PBLUC_R_SQUARED 0.671, read-out: LUCIFERASE INFECTION ASSAY - IC50): 0.578 µM
Cc1cc(C(=O)NN2Cc3ccccc3C2=N)c(C)n1-c1ccccc1 | > 10 µM | IC50 (HEPG2TOX_HILL_SLOPE 1.03, HEPG2TOX_R_SQUARED 0.677, read-out: LUCIFERASE INFECTION ASSAY - IC50): > 10 µM
Cn1ncc(C#N)c1NC(=O)c1cccc(Oc2ccccc2)c1 | 8.69 µM | IC50 (HEPG2TOX_HILL_SLOPE 1.03, HEPG2TOX_R_SQUARED 0.84, PBLUC_HILL_SLOPE 1.64, 1.43, PBLUC_R_SQUARED 0.588, 0.656, read-out: LUCIFERASE INFECTION ASSAY - IC50): 2.85 µM
CC(C)(C)c1cc2nc(C(F)(F)F)cc(SCCOC(=O)Nc3cccc(Cl)c3)n2n1 | > 6.98 µM | IC50 (HEPG2TOX_HILL_SLOPE 1.03, HEPG2TOX_R_SQUARED 0.0682, read-out: LUCIFERASE INFECTION ASSAY - IC50): > 6.98 µM
CCOc1cc(/C=C/C(=O)c2ccc(-c3ccccc3)cc2)ccc1OCC(=O)N(C)C | > 10 µM | IC50 (HEPG2TOX_HILL_SLOPE 0.976, HEPG2TOX_R_SQUARED 0.779, read-out: LUCIFERASE INFECTION ASSAY - IC50): > 10 µM
O=C(Nc1nc2ccc([N+](=O)[O-])cc2s1)c1cccc(Cl)c1 | > 10 µM | IC50 (HEPG2TOX_HILL_SLOPE 0.963, HEPG2TOX_R_SQUARED 0.986, PBLUC_HILL_SLOPE 0.779, PBLUC_R_SQUARED 0.754, read-out: LUCIFERASE INFECTION ASSAY - IC50): 0.754 µM
COc1ccc(-n2c(C)cc(C(=O)Cn3ncc(Cl)c(Cl)c3=O)c2C)cc1 | > 10 µM | IC50 (HEPG2TOX_HILL_SLOPE 0.989, HEPG2TOX_R_SQUARED 0.688, read-out: LUCIFERASE INFECTION ASSAY - IC50): > 10 µM
O=C1CCCN1CCCNc1cc(-c2ccccc2)c2ccccc2n1 | 4.46 µM | IC50 (HEPG2TOX_HILL_SLOPE 0.987, HEPG2TOX_R_SQUARED 0.959, PBLUC_HILL_SLOPE 13.1, PBLUC_R_SQUARED 0.545, read-out: LUCIFERASE INFECTION ASSAY - IC50): 3.77 µM
CCCCNC(=O)c1c(NC(=O)c2cccc(Cl)c2Cl)nc2ccc(C)cn12 | 1.27 µM | IC50 (HEPG2TOX_HILL_SLOPE 1.01, HEPG2TOX_R_SQUARED 0.774, PBLUC_HILL_SLOPE 4.09, PBLUC_R_SQUARED 0.588, read-out: LUCIFERASE INFECTION ASSAY - IC50): 0.743 µM

Structure (SMILES) | IC90 | other results
CC1=C(C(=O)OCc2ccccc2)C(c2ccc(Cl)c([N+](=O)[O-])c2)n2nnnc2N1 (centres undefined) | > 10 µM | IC50 (HEPG2TOX_HILL_SLOPE 0.964, HEPG2TOX_R_SQUARED 0.562, read-out: LUCIFERASE INFECTION ASSAY - IC50): > 10 µM
CC(=O)Nc1cccc(-c2cnc3ccc(-c4ccc(S(C)(=O)=O)cc4)nn23)c1 | 9.62 µM | IC50 (HEPG2TOX_HILL_SLOPE 0.982, HEPG2TOX_R_SQUARED 0.906, PBLUC_HILL_SLOPE 3.7, PBLUC_R_SQUARED 0.22, read-out: LUCIFERASE INFECTION ASSAY - IC50): 5.31 µM
COc1cccc(-c2ccc3ncc(-c4ccc(NC(C)=O)cc4)n3n2)c1 | 3.39 µM | IC50 (HEPG2TOX_HILL_SLOPE 0.992, HEPG2TOX_R_SQUARED 0.946, PBLUC_HILL_SLOPE 0.779, PBLUC_R_SQUARED 0.716, read-out: LUCIFERASE INFECTION ASSAY - IC50): 0.202 µM
COc1ccc(NC(=O)c2cc(-c3ccccc3)n(-c3ccccc3)c2C)cc1 | 4.38 µM | IC50 (HEPG2TOX_HILL_SLOPE 0.976, HEPG2TOX_R_SQUARED 0.937, PBLUC_HILL_SLOPE 1.32, PBLUC_R_SQUARED 0.59, read-out: LUCIFERASE INFECTION ASSAY - IC50): 0.834 µM
O=c1ccc(-c2nc3c4c5c(sc4ncn3n2)CCCCC5)n[nH]1 | 8.47 µM | IC50 (HEPG2TOX_HILL_SLOPE 0.965, HEPG2TOX_R_SQUARED 0.912, PBLUC_HILL_SLOPE 1.19, PBLUC_R_SQUARED 0.691, read-out: LUCIFERASE INFECTION ASSAY - IC50): 1.33 µM
CN(C)CCNC(=O)c1cccc(-c2cnc3ccc(-c4cccc(CO)c4)nn23)c1 | 1.58 µM | IC50 (HEPG2TOX_HILL_SLOPE 0.999, HEPG2TOX_R_SQUARED 0.943, PBLUC_HILL_SLOPE 3.71, PBLUC_R_SQUARED 0.586, read-out: LUCIFERASE INFECTION ASSAY - IC50): 0.873 µM
Cc1nc(/C=C/C(=O)Nc2nc3ccccc3[nH]2)cs1 | 1.37 µM | IC50 (HEPG2TOX_HILL_SLOPE 0.99, HEPG2TOX_R_SQUARED 0.611, PBLUC_HILL_SLOPE 0.644, PBLUC_R_SQUARED 0.42, read-out: LUCIFERASE INFECTION ASSAY - IC50): 0.0451 µM
COc1cccc(Nc2nccc3[nH]c(-c4cc(OC)cc(OC)c4)cc23)c1 | 1.74 µM | IC50 (HEPG2TOX_HILL_SLOPE 0.988, HEPG2TOX_R_SQUARED 0.934, PBLUC_HILL_SLOPE 2.38, PBLUC_R_SQUARED 0.617, read-out: LUCIFERASE INFECTION ASSAY - IC50): 0.69 µM
O=C(NC1CCCc2ccccc21)c1ccc2c(c1)S(=O)(=O)c1ccccc1C2=O (centres undefined) | > 10 µM | IC50 (HEPG2TOX_HILL_SLOPE 1, HEPG2TOX_R_SQUARED 0.0756, read-out: LUCIFERASE INFECTION ASSAY - IC50): > 10 µM
NS(=O)(=O)c1ccc(CNC(=O)c2ccc(Cn3cccn3)cc2)s1 | > 10 µM | IC50 (HEPG2TOX_HILL_SLOPE 0.983, HEPG2TOX_R_SQUARED 0.0206, read-out: LUCIFERASE INFECTION ASSAY - IC50): > 10 µM
O=c1c2cc(Cl)cc(Cl)c2nc(-c2cccc(C(F)(F)F)c2)n1O | > 8.8 µM | IC50 (HEPG2TOX_HILL_SLOPE 1.01, HEPG2TOX_R_SQUARED 0.454, PBLUC_HILL_SLOPE 14.5, PBLUC_R_SQUARED 0.382, read-out: LUCIFERASE INFECTION ASSAY - IC50): 8.11 µM
CC(C)N1CCCc2cc(CN3CCC4(CC3)C(=O)N(CCCc3ccncc3)C(=O)N4C)ccc21 | > 6.74 µM | IC50 (HEPG2TOX_HILL_SLOPE 0.974, HEPG2TOX_R_SQUARED 0.954, PBLUC_HILL_SLOPE 1.42, PBLUC_R_SQUARED 0.506, read-out: LUCIFERASE INFECTION ASSAY - IC50): 3.48 µM
O=C(Nc1ccc2c(c1)OCO2)C1CCN(c2ccnc3cc(Cl)ccc23)CC1 | 8.1 µM | IC50 (HEPG2TOX_HILL_SLOPE 0.967, HEPG2TOX_R_SQUARED 0.942, PBLUC_HILL_SLOPE 2.72, PBLUC_R_SQUARED 0.6, read-out: LUCIFERASE INFECTION ASSAY - IC50): 3.61 µM
COc1cc2c(cc1OC)C(c1cccs1)N(C(=O)Nc1cc(C)on1)CC2 (centres undefined) | 2.7 µM | IC50 (HEPG2TOX_HILL_SLOPE 0.982, HEPG2TOX_R_SQUARED 0.92, PBLUC_HILL_SLOPE 3.46, PBLUC_R_SQUARED 0.391, read-out: LUCIFERASE INFECTION ASSAY - IC50): 1.43 µM
c1ccn2c(Sc3ncnc4ccsc34)nnc2c1 | > 10 µM | IC50 (HEPG2TOX_HILL_SLOPE 1.03, HEPG2TOX_R_SQUARED 0.779, PBLUC_HILL_SLOPE 16.5, PBLUC_R_SQUARED 0.198, read-out: LUCIFERASE INFECTION ASSAY - IC50): 9.21 µM
Cc1ccccc1-c1cccc(CN2CCC3(CC2)C(=O)N(CCCc2ccncc2)C(=O)N3C)c1 | 2.53 µM | IC50 (HEPG2TOX_HILL_SLOPE 0.98, HEPG2TOX_R_SQUARED 0.922, PBLUC_HILL_SLOPE 14, PBLUC_R_SQUARED 0.565, read-out: LUCIFERASE INFECTION ASSAY - IC50): 2.16 µM
